The text below walks through data of article PMC10222203 (Pharmaceutics, 2023).

By fraction unbound is commonly meant free concentration divided by total concentration. Low values mean little free substance, high ones much free substance.

Like-named read-outs stand apart in the source and are kept apart here.

The conditions of data set [1]: rat. As to the method:
(§1) In short, lung slices were prepared by performing an in situ perfusion of the lungs of the rats with physiological saline and then filling them with agarose Type VII-A to facilitate slicing. Slices of 500 µm thickness were prepared using the Leica VT1200 microtome slicer (Leica Microsystems, Wetzlar, Germany). […] After a 5 h incubation at 37 °C in an incubated shaker (MaxQ4450 Thermo Fisher Scientific, NinoLab, Stockholm, Sweden) with a rotation speed of 45 rpm, the buffer and lung slices were sampled. To match the matrix of the lung slice samples, 200 μL of aECF was mixed with 200 μL of blank agarose-filled lung homogenate (1:4, w:v). The lung slices were individually removed, dried on filter paper, weighed, and thereafter homogenized in 9 volumes (w:v) of aECF with an ultrasonic processor (VCX-130; Sonics, Chemical Instruments AB, Stockholm, Sweden). All samples were stored at −20 °C pending LC-MS/MS analysis. Assuming that at equilibrium the concentration of the peptide in virtually protein-free buffer is equal to the interstitial fluid concentration in the lung slice, the Vu,lung (mL/g lung) was estimated using Equation (4) as a ratio of the amount of compound in the lung slice (Alung, nanomoles g lung) to the measured final buffer concentration (Cbuffer, micromole/L). […]

Another data set relates to lung slices. The following applies: rat lung slices, 200 nM, 5 h, 37 °C. Here is the method:
as §1

The conditions of data set [2]: rat, tissue homogenate.
For data set [3] the following is noted: rat, plasma, Fraction unbound in plasma, fu,plasma, undiluted rat plasma, 1 µM, equilibrium dialysis 6 h 37 °C.
Method: Peptide binding to plasma proteins, brain tissue homogenate, and lung tissue homogenate as well as to neuronal and astrocyte cell culture homogenates was investigated using equilibrium dialysis [47]. Undiluted plasma and brain from three peptide-naïve rats were used in the experiment. The brain homogenate was prepared by homogenizing 1 part brain with 4 parts of phosphate-buffered saline (PBS, pH 7.4). […] Semi-permeable membranes with a molecular weight cut-off of 12–14 kDa were used and placed in an HTD96b apparatus (HTDialysis, Gales Ferry, CT, USA). The undiluted plasma and respective homogenates were spiked with individual peptide to a concentration of 1 µM and were dialyzed against PBS (pH 7.4). Five technical replicates were prepared per biological replicate. The experiment was run for 6 h at 37 °C in a MaxQ4450 shaker (Thermo Fisher Scientific, NinoLab, Sweden) at 200 rpm. […] Aliquots (80 µL) were taken from the buffer and plasma/homogenate sides. To compensate for any differences in matrix during bioanalysis, the plasma and homogenate samples were mixed with equal volumes of blank buffer, and the buffer samples were mixed with an equal volume of relevant blank plasma/homogenate. Spiked plasma and respective homogenate samples were incubated to control for relative recovery and thermal stability of the peptides in respective matrices.
The unbound fraction in undiluted plasma was calculated using Equation (5), where Cbuffer is the unbound concentration of peptide in the buffer and Cplasma is the total concentration of peptide in plasma at 6 h. The binding of peptide in various homogenates was assessed in two steps. First, the fraction of unbound peptide in the diluted homogenate, fu,h,D, was calculated using Equation (6), where Chomogenate is the total concentration of peptide in respective homogenate at 6 h. Second, the correction for the dilution was implemented as described in Equation (7), where D is the dilution factor used in the preparation [47]. D was 5 for brain and lung homogenates and on average 35.3 for the cell culture studies, as determined based on the total protein content and the total volume of lysate. (5) fu,plasma=Cbuffer/Cplasma (6) fu,h,D=Cbuffer/Chomogenate (7) fu,tissue/cell=1/D/((1/fu,h,D )−1)+1/D
The conditions of data set [4]: cell lysates vs brain homogenate, on average.
On the set-up of data set [5]: method as in PubChem. The note with it: estimates from PubChem; ref PubChem; cited from earlier work.

`CC(C)C[C@@H]1NC(=O)CNC(=O)[C@H](CC(N)=O)NC(=O)[C@H](CCCNC(=N)N)NC(=O)[C@H]([C@@H](C)O)NC(=O)[C@@H]2CSSC[C@@H]3NC(=O)[C@H]([C@@H](C)O)NC(=O)CNC(=O)CNC(=O)[C@H](C(C)C)NC(=O)[C@@H]4CSSC[C@H](NC(=O)[C@H]([C@@H](C)O)NC(=O)[C@H](CSSC[C@H](NC(=O)[C@H](C(C)C)NC(=O)[C@@H]5CCCN5C1=O)C(=O)NCC(=O)N[C@@H](CCC(=O)O)C(=O)N[C@@H]([C@@H](C)O)C(=O)N4)NC(=O)CNC(=O)[C@@H]1CCCN1C(=O)[C@H]([C@@H](C)O)NC(=O)[C@H](CC(N)=O)NC3=O)C(=O)N[C@@H](CO)C(=O)N[C@@H](Cc1c[nH]c3ccccc13)C(=O)N1CCC[C@H]1C(=O)N[C@@H](C(C)C)C(=O)N2` [Kalata B1]: the Kp uu in data set [1] is 0.195 ± 0.107. For the same molecule, in the data set on lung slices, the “Vu,lung” value was determined as 1.23 mL/g lung. Besides, the fraction unbound in data set [2] came out at 0.0377 ± 0.0079; in data set [3] it was 0.3.
Turning to `CC[C@H](C)[C@@H]1NC(=O)[C@@H]2CCCN2C(=O)[C@@H]2CCCN2C(=O)[C@H]([C@@H](C)CC)NC(=O)[C@H](CO)NC(=O)[C@H](CCCCN)NC(=O)[C@H]([C@@H](C)O)NC(=O)[C@@H]2CSSC[C@H](NC1=O)C(=O)N[C@@H](Cc1ccccc1)C(=O)N1CCC[C@H]1C(=O)N[C@@H](CC(=O)O)C(=O)NCC(=O)N[C@@H](CCCNC(=N)N)C(=O)N2` [SFTI-1, sunflower trypsin inhibitor-1], the “fu,cell fold lower than fu,brain” value in data set [4] is given as 3 fold. Further, in data set [5], the Predicted net charge is 0.
